Results taken from patent US8680133B2, “Alkyl indole-3-carbinol-derived antitumor agents” (The Ohio State University Research Foundation, priority 2009, dated 2014).

Experiments:
PC-3 xenograft tumor = PC-3 xenograft tumor growth in nude mice, oral gavage; format: in vivo; details: 25 and 50 mg/kg per day by oral gavage, 49-day treatment; in words
Method: FIG. 2 provides three graphs (A-C) showing the in vivo effects of OSU-A9M (C) versus OSU-A9 (A) and OSU-A9 F (B), each at 25 and 50 mg/kg per day by oral gavage, on suppressing PC-3 xenograft tumor growth in nude mice (n=6).
The efficacy studies were therefore repeated with OSU-A9M and OSU-A9F, following 42 days and 49 days treatment, respectively, versus OSU-A9 with 49-day treatment.
In all three treatments, the body weights of drug-treated mice were not affected. No signs of overt toxicity were observed.

[1] = test system: PC-3 prostate cancer cells; assay: MTT assay of PC-3 cell viability; format: cell-based; details: MTT assay, 24, 48 and 72 h; comparison in words
Method: Each data point represents means±S.D. (n=6). The activity of OSU-A9M versus its parent compound A9 ([1-(3′-nitro-4′-chlorobenzenesulfonyl)-1H-indol-3-yl]-methanol) and its fluorinated counterpart OSU-A9F ([1-(4-Chloro-3-nitro-benzenesulfonyl)-5-fluoro-1H-indol-3-yl])-methanol in suppressing the cell viability of PC-3 prostate cancer cells was compared using the MTT [3-(4,5-dimethylthiazol-2-yl)-2,5-diphenyl-2H-tetrazolium bromide] assay. Cancer cells and PrECs were grown in 5% FBS-supplemented RPMI 1640 medium or 5% FBS-supplemented prostate epithelial growth medium, respectively, in 96-well, flat-bottomed plates for 24 h, and then exposed to various concentrations of test agents in the same medium for the indicated time intervals. Controls received DMSO vehicle at a concentration equal to that in drug-treated cells. At the end of the treatment, the medium was removed, replaced by 200 μL of 0.5 mg/mL of MTT in the same medium, and cells were incubated in the CO2 incubator at 37° C. for 2 h. Supernatants were removed from the wells, and the reduced MTT dye was solubilized in 200 μL/well DMSO. Absorbance at 570 nm was determined on a plate reader.

SMILES	Tumor growth suppression in the PC-3 model (PC-3 xenograft tumor)	In vitro potency against the viability of PC-3 cells [1]
O=[N+]([O-])c1cc(S(=O)(=O)n2cc(CO)c3ccccc32)ccc1Cl [OSU-A9, [1-(3′-nitro-4′-chlorobenzenesulfonyl)-1H-indol-3-yl]-methanol, reference compound]	significant tumor growth suppression	
O=[N+]([O-])c1cc(S(=O)(=O)n2cc(CO)c3cc(F)ccc32)ccc1Cl [OSU-A9F, reference compound]		greater than or similar to that of OSU-A9
